ChEMBL document CHEMBL5442219

How the values were obtained:
Conditions in all cases: Compound concentration 10 µM
[1] = biological target: D(3) dopamine receptor (Homo sapiens) (UniProt P35462)
Description: PDSP Primary Binding target: DRD3 - Compounds are tested at 10 uM concentration, plate are incubated at room temperature in the dark for 90 minutes. Reaction are stopped by vacuum filtration onto 0.3% polyethyleneimine soaked filter mats using Filtermate harvester. Scintilation cocktail is then melted onto microwave-dried filters on a hot plate and the radio activity is counted in Microbia counter.

[2] = biological target: D(1B) dopamine receptor (Homo sapiens) (UniProt P21918)
Description: PDSP Primary Binding target: DRD5 - Compounds are tested at 10 uM concentration, plate are incubated at room temperature in the dark for 90 minutes. Reaction are stopped by vacuum filtration onto 0.3% polyethyleneimine soaked filter mats using Filtermate harvester. Scintilation cocktail is then melted onto microwave-dried filters on a hot plate and the radio activity is counted in Microbia counter.

[3] = biological target: Histamine H1 receptor (Homo sapiens) (UniProt P35367)
Description: PDSP Primary Binding target: HRH1 - Compounds are tested at 10 uM concentration, plate are incubated at room temperature in the dark for 90 minutes. Reaction are stopped by vacuum filtration onto 0.3% polyethyleneimine soaked filter mats using Filtermate harvester. Scintilation cocktail is then melted onto microwave-dried filters on a hot plate and the radio activity is counted in Microbia counter.

[4] = biological target: 5-hydroxytryptamine receptor 7 (Homo sapiens) (UniProt P34969)
Description: PDSP Primary Binding target: HTR7 - Compounds are tested at 10 uM concentration, plate are incubated at room temperature in the dark for 90 minutes. Reaction are stopped by vacuum filtration onto 0.3% polyethyleneimine soaked filter mats using Filtermate harvester. Scintilation cocktail is then melted onto microwave-dried filters on a hot plate and the radio activity is counted in Microbia counter.

[5] = biological target: 5-hydroxytryptamine receptor 1D (Homo sapiens) (UniProt P28221)
Sequence of 5-hydroxytryptamine receptor 1D (Homo sapiens) (P28221 whole entry): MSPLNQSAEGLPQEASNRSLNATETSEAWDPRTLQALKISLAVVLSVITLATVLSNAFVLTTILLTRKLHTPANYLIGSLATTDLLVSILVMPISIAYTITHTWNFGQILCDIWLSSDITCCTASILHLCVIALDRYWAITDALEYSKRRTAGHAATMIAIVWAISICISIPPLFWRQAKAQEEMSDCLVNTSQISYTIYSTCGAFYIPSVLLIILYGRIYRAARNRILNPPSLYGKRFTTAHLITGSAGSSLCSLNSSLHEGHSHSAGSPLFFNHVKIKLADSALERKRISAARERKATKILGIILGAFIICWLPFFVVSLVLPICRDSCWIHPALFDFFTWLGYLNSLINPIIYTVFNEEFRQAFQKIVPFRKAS
Description: PDSP Primary Binding target: HTR1D - Compounds are tested at 10 uM concentration, plate are incubated at room temperature in the dark for 90 minutes. Reaction are stopped by vacuum filtration onto 0.3% polyethyleneimine soaked filter mats using Filtermate harvester. Scintilation cocktail is then melted onto microwave-dried filters on a hot plate and the radio activity is counted in Microbia counter.

[6] = biological target: T1, 5-hydroxytryptamine receptor 2C (Homo sapiens) (UniProt P28335)
T1 sequence (whole entry): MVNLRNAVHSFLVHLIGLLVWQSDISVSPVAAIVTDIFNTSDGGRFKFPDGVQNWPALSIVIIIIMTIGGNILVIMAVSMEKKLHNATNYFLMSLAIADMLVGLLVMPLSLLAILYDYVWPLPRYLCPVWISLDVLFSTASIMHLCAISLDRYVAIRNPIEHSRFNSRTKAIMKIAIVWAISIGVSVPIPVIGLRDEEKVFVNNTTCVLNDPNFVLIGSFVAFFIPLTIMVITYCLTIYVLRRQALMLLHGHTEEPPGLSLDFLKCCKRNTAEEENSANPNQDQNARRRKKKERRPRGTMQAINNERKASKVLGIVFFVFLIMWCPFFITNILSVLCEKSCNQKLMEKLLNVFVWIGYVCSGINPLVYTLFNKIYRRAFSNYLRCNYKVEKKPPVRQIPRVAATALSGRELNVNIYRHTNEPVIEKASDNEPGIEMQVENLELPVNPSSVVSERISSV
Description: PDSP Primary Binding target: HTR2C - Compounds are tested at 10 uM concentration, plate are incubated at room temperature in the dark for 90 minutes. Reaction are stopped by vacuum filtration onto 0.3% polyethyleneimine soaked filter mats using Filtermate harvester. Scintilation cocktail is then melted onto microwave-dried filters on a hot plate and the radio activity is counted in Microbia counter.

[7] = biological target: Histamine H2 receptor (Homo sapiens) (UniProt P25021)
Sequence of Histamine H2 receptor (Homo sapiens) (P25021 whole entry): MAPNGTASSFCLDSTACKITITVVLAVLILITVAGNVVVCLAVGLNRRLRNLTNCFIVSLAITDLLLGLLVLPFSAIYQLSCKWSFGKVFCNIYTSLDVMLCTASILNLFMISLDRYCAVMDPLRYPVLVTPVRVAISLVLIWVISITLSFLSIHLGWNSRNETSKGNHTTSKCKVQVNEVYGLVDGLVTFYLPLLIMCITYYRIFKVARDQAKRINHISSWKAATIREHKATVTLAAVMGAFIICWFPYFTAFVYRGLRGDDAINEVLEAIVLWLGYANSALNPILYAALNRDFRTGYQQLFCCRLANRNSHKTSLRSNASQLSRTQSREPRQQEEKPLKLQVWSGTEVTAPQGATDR
Description: PDSP Primary Binding target: HRH2 - Compounds are tested at 10 uM concentration, plate are incubated at room temperature in the dark for 90 minutes. Reaction are stopped by vacuum filtration onto 0.3% polyethyleneimine soaked filter mats using Filtermate harvester. Scintilation cocktail is then melted onto microwave-dried filters on a hot plate and the radio activity is counted in Microbia counter.

[8] = biological target: Mu-type opioid receptor (Homo sapiens) (UniProt P35372)
Sequence of Mu-type opioid receptor (Homo sapiens) (P35372 whole entry): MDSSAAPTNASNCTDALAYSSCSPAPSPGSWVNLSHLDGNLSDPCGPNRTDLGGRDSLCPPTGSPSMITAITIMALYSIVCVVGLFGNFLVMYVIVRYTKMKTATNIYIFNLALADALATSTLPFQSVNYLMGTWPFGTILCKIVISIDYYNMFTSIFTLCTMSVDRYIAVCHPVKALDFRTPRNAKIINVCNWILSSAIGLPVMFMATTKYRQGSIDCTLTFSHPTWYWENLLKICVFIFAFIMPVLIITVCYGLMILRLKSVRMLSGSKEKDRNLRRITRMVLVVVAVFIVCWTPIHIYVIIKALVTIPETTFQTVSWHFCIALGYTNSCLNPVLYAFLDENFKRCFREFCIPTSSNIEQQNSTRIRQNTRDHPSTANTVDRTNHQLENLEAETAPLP
Description: PDSP Primary Binding target: OPRM1 - Compounds are tested at 10 uM concentration, plate are incubated at room temperature in the dark for 90 minutes. Reaction are stopped by vacuum filtration onto 0.3% polyethyleneimine soaked filter mats using Filtermate harvester. Scintilation cocktail is then melted onto microwave-dried filters on a hot plate and the radio activity is counted in Microbia counter.

[9] = biological target: T2, Muscarinic acetylcholine receptor M1 (Homo sapiens) (UniProt P11229)
T2 sequence (whole entry): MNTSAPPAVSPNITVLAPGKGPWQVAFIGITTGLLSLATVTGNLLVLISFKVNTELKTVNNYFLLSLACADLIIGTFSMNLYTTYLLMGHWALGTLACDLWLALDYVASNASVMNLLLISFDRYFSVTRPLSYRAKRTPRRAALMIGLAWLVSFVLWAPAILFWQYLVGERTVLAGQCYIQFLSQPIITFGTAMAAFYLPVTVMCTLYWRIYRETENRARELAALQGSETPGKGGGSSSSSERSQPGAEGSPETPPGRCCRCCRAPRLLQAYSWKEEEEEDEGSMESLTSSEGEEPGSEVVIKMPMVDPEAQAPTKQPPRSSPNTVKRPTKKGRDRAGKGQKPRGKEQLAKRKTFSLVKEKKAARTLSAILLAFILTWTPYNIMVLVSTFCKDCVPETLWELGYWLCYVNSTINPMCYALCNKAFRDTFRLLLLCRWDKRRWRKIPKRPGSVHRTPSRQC
Description: PDSP Primary Binding target: CHRM1 - Compounds are tested at 10 uM concentration, plate are incubated at room temperature in the dark for 90 minutes. Reaction are stopped by vacuum filtration onto 0.3% polyethyleneimine soaked filter mats using Filtermate harvester. Scintilation cocktail is then melted onto microwave-dried filters on a hot plate and the radio activity is counted in Microbia counter.

[10] = biological target: Kappa-type opioid receptor (Homo sapiens) (UniProt P41145)
Sequence of Kappa-type opioid receptor (Homo sapiens) (P41145 whole entry): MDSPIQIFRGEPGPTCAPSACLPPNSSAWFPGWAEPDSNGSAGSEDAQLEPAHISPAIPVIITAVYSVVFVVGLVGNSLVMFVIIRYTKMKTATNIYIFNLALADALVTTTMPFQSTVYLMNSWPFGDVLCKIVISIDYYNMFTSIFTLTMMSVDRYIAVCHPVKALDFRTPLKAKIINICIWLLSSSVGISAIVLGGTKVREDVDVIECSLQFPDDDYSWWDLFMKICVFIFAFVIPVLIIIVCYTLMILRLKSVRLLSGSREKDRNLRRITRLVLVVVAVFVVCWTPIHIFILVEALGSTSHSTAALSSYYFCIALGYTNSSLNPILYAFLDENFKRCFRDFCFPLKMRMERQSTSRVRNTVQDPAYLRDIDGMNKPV
Description: PDSP Primary Binding target: OPRK1 - Compounds are tested at 10 uM concentration, plate are incubated at room temperature in the dark for 90 minutes. Reaction are stopped by vacuum filtration onto 0.3% polyethyleneimine soaked filter mats using Filtermate harvester. Scintilation cocktail is then melted onto microwave-dried filters on a hot plate and the radio activity is counted in Microbia counter.

[11] = biological target: T3, Muscarinic acetylcholine receptor M4 (Homo sapiens) (UniProt P08173)
T3 sequence (whole entry): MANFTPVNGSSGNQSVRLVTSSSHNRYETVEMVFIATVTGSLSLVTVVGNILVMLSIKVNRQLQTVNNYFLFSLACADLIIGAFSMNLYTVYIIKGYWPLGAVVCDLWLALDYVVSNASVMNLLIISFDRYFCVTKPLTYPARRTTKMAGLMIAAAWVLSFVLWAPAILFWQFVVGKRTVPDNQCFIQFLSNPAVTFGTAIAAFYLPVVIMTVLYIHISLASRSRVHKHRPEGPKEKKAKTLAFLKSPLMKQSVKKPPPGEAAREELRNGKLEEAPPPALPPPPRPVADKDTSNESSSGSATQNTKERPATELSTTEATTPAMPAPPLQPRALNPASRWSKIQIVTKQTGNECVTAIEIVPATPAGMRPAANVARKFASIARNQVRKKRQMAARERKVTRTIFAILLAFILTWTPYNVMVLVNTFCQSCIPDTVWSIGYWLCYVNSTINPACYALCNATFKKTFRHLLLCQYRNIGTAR
Description: PDSP Primary Binding target: CHRM4 - Compounds are tested at 10 uM concentration, plate are incubated at room temperature in the dark for 90 minutes. Reaction are stopped by vacuum filtration onto 0.3% polyethyleneimine soaked filter mats using Filtermate harvester. Scintilation cocktail is then melted onto microwave-dried filters on a hot plate and the radio activity is counted in Microbia counter.

[12] = biological target: Beta-3 adrenergic receptor (Homo sapiens) (UniProt P13945)
Sequence of Beta-3 adrenergic receptor (Homo sapiens) (P13945 whole entry, looked up): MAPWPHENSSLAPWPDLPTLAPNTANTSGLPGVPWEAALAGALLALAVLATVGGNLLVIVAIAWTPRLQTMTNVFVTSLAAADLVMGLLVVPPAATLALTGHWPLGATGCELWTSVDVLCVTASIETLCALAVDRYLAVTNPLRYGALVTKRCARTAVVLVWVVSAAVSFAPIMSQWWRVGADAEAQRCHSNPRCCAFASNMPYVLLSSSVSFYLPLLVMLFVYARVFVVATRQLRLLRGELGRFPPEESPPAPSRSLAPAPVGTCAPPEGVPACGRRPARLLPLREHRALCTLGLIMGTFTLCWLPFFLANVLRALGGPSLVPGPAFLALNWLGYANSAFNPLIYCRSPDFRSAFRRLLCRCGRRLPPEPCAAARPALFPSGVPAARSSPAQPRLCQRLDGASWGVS
Description: PDSP Primary Binding target: ADRB3 - Compounds are tested at 10 uM concentration, plate are incubated at room temperature in the dark for 90 minutes. Reaction are stopped by vacuum filtration onto 0.3% polyethyleneimine soaked filter mats using Filtermate harvester. Scintilation cocktail is then melted onto microwave-dried filters on a hot plate and the radio activity is counted in Microbia counter.

[13] = biological target: T4, 5-hydroxytryptamine receptor 3A (Homo sapiens) (UniProt P46098)
T4 sequence (whole entry): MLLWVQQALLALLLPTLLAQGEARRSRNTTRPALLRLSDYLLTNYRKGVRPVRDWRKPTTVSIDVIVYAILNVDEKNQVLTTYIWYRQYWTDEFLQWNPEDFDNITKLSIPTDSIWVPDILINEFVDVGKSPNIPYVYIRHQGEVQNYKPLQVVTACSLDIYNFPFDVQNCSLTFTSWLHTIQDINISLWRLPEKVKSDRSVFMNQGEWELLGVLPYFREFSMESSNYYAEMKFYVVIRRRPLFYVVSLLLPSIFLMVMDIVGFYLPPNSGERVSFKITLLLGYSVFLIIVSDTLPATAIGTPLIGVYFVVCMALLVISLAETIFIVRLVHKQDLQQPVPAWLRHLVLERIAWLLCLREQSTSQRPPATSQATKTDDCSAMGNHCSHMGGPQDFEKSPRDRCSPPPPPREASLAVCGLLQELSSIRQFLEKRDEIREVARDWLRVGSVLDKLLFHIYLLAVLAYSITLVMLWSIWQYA
Description: PDSP Primary Binding target: HTR3A - Compounds are tested at 10 uM concentration, plate are incubated at room temperature in the dark for 90 minutes. Reaction are stopped by vacuum filtration onto 0.3% polyethyleneimine soaked filter mats using Filtermate harvester. Scintilation cocktail is then melted onto microwave-dried filters on a hot plate and the radio activity is counted in Microbia counter.

Sequence of D(3) dopamine receptor (Homo sapiens) (P35462 whole entry): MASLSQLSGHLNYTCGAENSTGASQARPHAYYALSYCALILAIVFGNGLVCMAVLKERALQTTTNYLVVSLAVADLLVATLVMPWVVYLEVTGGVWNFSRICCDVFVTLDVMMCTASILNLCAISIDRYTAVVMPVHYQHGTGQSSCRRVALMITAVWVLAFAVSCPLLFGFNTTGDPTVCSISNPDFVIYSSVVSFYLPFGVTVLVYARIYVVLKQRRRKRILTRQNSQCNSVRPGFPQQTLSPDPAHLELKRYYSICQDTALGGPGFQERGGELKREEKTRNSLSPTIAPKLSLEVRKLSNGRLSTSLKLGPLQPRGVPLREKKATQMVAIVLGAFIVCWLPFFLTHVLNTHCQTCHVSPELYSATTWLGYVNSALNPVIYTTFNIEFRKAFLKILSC
Sequence of 5-hydroxytryptamine receptor 7 (Homo sapiens) (P34969 whole entry): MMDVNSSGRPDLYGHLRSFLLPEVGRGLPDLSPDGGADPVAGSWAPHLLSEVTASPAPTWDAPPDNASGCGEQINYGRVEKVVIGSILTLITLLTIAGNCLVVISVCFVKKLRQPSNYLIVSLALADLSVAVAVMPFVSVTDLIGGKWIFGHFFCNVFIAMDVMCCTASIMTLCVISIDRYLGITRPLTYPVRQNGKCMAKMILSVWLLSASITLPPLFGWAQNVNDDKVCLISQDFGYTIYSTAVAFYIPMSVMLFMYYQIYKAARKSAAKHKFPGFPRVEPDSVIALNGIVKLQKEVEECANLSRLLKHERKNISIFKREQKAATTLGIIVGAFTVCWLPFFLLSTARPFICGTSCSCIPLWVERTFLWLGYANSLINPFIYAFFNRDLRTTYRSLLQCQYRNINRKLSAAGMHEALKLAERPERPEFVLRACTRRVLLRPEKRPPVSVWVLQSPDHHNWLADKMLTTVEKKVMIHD
Sequence of D(1B) dopamine receptor (Homo sapiens) (P21918 whole entry): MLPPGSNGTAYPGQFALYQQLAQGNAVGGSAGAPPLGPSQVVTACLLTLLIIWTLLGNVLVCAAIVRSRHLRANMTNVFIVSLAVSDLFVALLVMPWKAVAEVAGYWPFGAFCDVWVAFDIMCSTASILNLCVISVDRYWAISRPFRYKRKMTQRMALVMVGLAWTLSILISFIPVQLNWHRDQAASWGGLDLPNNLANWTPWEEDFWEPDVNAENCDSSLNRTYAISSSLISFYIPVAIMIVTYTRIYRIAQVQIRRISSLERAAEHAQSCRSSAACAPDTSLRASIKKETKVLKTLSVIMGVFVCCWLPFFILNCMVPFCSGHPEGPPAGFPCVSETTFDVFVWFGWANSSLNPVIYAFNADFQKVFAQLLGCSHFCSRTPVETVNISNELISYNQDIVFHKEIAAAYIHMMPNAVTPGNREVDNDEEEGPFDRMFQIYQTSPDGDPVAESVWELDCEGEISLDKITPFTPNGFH
Sequence of Histamine H1 receptor (Homo sapiens) (P35367 whole entry): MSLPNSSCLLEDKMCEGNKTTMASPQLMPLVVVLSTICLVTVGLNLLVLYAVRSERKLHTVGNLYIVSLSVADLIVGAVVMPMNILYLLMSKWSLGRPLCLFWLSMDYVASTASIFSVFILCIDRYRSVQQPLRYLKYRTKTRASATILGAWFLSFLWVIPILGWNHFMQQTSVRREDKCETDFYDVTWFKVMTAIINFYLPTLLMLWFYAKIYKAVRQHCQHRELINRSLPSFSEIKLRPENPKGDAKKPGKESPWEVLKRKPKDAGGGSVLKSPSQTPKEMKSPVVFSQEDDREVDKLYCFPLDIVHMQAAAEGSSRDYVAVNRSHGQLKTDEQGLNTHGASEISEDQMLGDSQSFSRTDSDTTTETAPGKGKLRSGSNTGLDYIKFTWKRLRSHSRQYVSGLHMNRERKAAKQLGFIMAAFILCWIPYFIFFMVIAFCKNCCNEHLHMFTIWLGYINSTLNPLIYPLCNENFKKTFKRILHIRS

Row | Structure (SMILES) | inhibition [1] [%] | inhibition [2] [%] | inhibition [3] [%] | inhibition [4] [%] | inhibition [5] [%] | inhibition [6] [%] | inhibition [7] [%] | inhibition [8] [%] | inhibition [9] [%] | inhibition [10] [%] | inhibition [11] [%] | inhibition [12] [%] | inhibition [13] [%]
1 | COc1ccnc(N2CCC3(CCCN(Cc4c[nH]c5ccccc45)C3=O)CC2)n1 | 28.5 | 20.4 | 23.1 | 8.03 | 13.2 | 0.97 | -7.83 | -4.41 | 0.43 | 6.61 | -7.79 | -5.97 | 
2 | COC1CCN(c2cccc(-c3cc(NC(C)=O)nc(-n4nc(C)cc4C)n3)n2)CC1 |  | 3.58 | 14.4 | 0.28 |  | 3.48 | 26 | 27.3 | 1.9 |  |  | 22.6 | 21.1
3 | Cc1nnn(-c2ccc(-c3ccc(C4(C(=O)O)CC4)cc3)cc2)c1NC(=O)O[C@H](C)c1ccccc1 | 34.8 | 43.6 | 52.8 |  | 16.8 |  | 4.74 | -8.07 | 7.62 | -4.59 |  | 24.9 | 
4 | Cc1csc(NC(=O)c2cc(F)cc(Oc3cncnc3)c2)n1 | 72 | 46 | -6.12 | 15.3 | 5.84 | 0.59 | 28.4 | -8.28 | -0.94 | 18.9 | -5.33 |  | 
5 | Cc1c(C2=CCN(C(=O)N(C)C(C)C)CC2)nnn1-c1cccnc1F | -1.95 |  | 60.9 | -7.92 |  | -0.1 | 29.8 | 36.2 | 2.87 |  | -9.61 | 14.8 | 8.19
